Peptide text beside a SMILES is read from it. * marks the point of attachment. Cbz = O=C(OCc1ccccc1)*
Assays:
[1] = system: Hsp70; experiment: Hsp70 synthesis stimulation assay (competitive ELISA); type: cell-based; conditions: human keratinocyte cell line, normalized to average basal values
Experimental: Hsp70 synthesis stimulation was assessed in a human keratinocyte cell line in the presence of the peptides of the invention. The cells were seeded (10^6 cells/6-well plate) and incubated for 24 hours in DMEM, after which the peptides were added to 200 μM in culture medium and were incubated for another 16-24 hours. The proteasome inhibitor MG-132 at 10 μM was used as a positive control and vehicle (culture medium) as a negative control. After the incubation period, the cells were washed with PBS, lysed and centrifuged at 12,000 rpm at 4° C. for 10 min. The supernatants were collected, and the Hsp70 levels were determined by carrying out a competitive ELISA assay following the protocols of the commercial kit (DuoSet IC human/mouse total HSP70 ELISA kit, R&D Systems Inc.)
Hsp70 levels were normalized with regards to the average basal values.

[2] = system: human keratinocytes; type: cell-based; conditions: 2 h, 0.1 mM
Experimental: The human keratinocytes were maintained in culture for 24 hours in 96-well plates for monolayer formation and the cells were pre-incubated in darkness with 0.1 mM of Ac-L-His-L-Pro-L-Leu-L-Arg-OH, Ac-L-His-L-Leu-L-Leu-L-Arg-OH in culture medium or with vehicle (culture medium) for 2 hours at 37° C. Subsequently the cells were radiated with UVB at an energy of 800 J/m^2. A control plate with vehicle was maintained in the dark without radiation for the same time at room temperature. After the irradiation period the cells' medium was replaced by a fresh medium and the cells were incubated for additional 24 hours. Cell viability was determined by the MTT method, adding 5 mg/mL of the MTT solution to each well and incubating the plate for 4 hours at 37° C., after which time the medium was removed, 100μL of DMSO was added and the plate was stirred at room temperature for 15 min. The optical density of each well was measured at 570 nm in a spectrophotometer.

Row | Structure (SMILES) | Hsp70 increase ([1]; peptide 200 μM, 16-24 hours) [%] | CELL VIABILITY [2] [%] | Hsp70 increase ([1]; positive control MG-132 at 10 μM) [%]
1 | CC(=O)N[C@@H](Cc1c[nH]cn1)C(=O)N[C@@H](CC(C)C)C(=O)N[C@@H](CC(C)C)C(=O)N[C@@H](CCCNC(=N)N)C(=O)O [Ac-L-His-L-Leu-L-Leu-L-Arg-OH] (Ac-HLLR-OH) | 28 | 87.7 | –
2 | CC(=O)N[C@@H](Cc1c[nH]cn1)C(=O)N1CCC[C@H]1C(=O)N[C@@H](CC(C)C)C(=O)N[C@@H](CCCNC(=N)N)C(=O)O [Ac-L-His-L-Pro-L-Leu-L-Arg-OH] (Ac-HPLR-OH) | 42 | 97.2 | –
3 | CC(C)C[C@@H](C=O)NC(=O)[C@H](CC(C)C)NC(=O)[C@H](CC(C)C)NC(=O)OCc1ccccc1 [MG-132, reference compound] (Cbz-Leu-Leu-Leu-aldehyde) | – | – | 294
